Values after ≈ are worked out from the molar mass of the structure shown. Values joined by “and” are separate entries in the source; they are usually repeats but may differ in a detail not shown here. Identical values can stand only once. Like-named read-outs stand apart in the source and are kept apart here.
Assays:
cancer cell lines = assay: Inhibition of growth of cancer cell lines in vitro (FIGS. 9 and 10); assay type: cell-based; conditions: 0.2-33 μM
Description: FIG. 9A-9K show the results of inhibition of growth of cancer cell lines in vitro by FQI1 (Formula (IV)). The effect of inhibition of cell growth (represented as a fraction of 1) of increasing concentrations of FQI1 between 0.2-33 μM is shown.
The effect of inhibition of cell growth (represented as a fraction of 1) of increasing concentrations of FQI2 between 0.2-33 μM is shown.

[1] = Pharmacokinetic analysis in rat plasma; assay type: in vivo; conditions: for Vd: read-out: VDss; for bioavailability: read-out: % Bioavailability F
Description: The purpose of the study was to measure the concentration of FQI-34 in rat plasma samples. The study was performed under non-GLP conditions. All work was performed with appropriate local health regulation and ethical approval. Plasma samples were taken at 0.08, 0.25, 0.5, 1, 2, 4, 8, and 24 hours. Plasma samples were crashed with three volumes of methanol containing an analytical internal standard (propranolol/bucetin/diclofenac). Samples were then centrifuged to remove precipitated protein, and the supernatant was analyzed by LC-MS/MS using a Waters Xevo TQ mass spectrometer coupled with an Acuity HPLC and a CTC PAL chilled autosampler, all controlled by MassLynx software (Waters). The analyte signal was optimized prior to analysis. After separation on a C18 reverse phase HPLC column (Waters Acquity HSS T3 2.1×50 mm 1.8 μM) using an acetonitrile-water gradient system, peaks were analyzed by mass spectrometry (MS) using ESI ionization in MRM mode. All plasma samples were compared to a calibration curve prepared in rat blank plasma.
Male Sprague-Dawley rats were obtained from a commercial source and housed in an AAALAC-approved facility until dosing. For IV dosing, FQI-34 was dissolved in 10% ethanol/16% PEG-400/74% saline at 0.4 mg/mL and in a 1% methylcellulose/0.5% Tween-80 suspension at 10 mg/mL for PO dosing. Three rats per group were dosed by a single IV bolus (10 mL/kg) or PO (10 mL/kg).
Plasma PK-parameters were independently verified and interpreted using PK-solver: An Excel add-In (Zhang, Y. et al. PKSolver: An add-in program for pharmacokinetic and pharmacodynamic data analysis in Microsoft Excel. Comput. Methods Programs Biomed. (2010) 99, 306-314), via a non-compartmental analysis using the linear-trapezoidal method (Fan, J. Pharmacokinetics. Biochemical Pharmacology (2014) 87, 93-120).

QGY-7703 cells = assay: Cell viability GI50 (MTS), QGY-7703; assay type: cell-based; conditions: Homo sapiens
Description: QGY-7703 and A549 cells were cultured at 37° C. in 5% CO2 in DMEM (Dulbecco's modification of Eagle's Medium; Corning) supplemented with 10% Fetal Bovine Serum (FBS; Invitrogen). NIH-3T3 cells were cultured at 37° C. in 5% CO2 in DMEM supplemented with 10% Fetal Calf Serum (FCS; Atlanta Biologicals). For cell viability assays, 1,500 cells were seeded in 96-well plates and treated with FQI-34 or vehicle (DMSO) at appropriate concentrations (DMSO at 1%) after 20 hours. After 72-hour incubation with compound or vehicle, cell growth was assessed via the Promega CellTiter 96® AQueous One Solution Cell Proliferation Assay, a colorimetric method to determine the number of viable cells. 20 μL of the CellTiter 96® AQueous One Solution Reagent was added directly into cultured wells and incubated for one hour, after which the absorbance at 490 nm was read with a 96-well plate reader (Opys MR Microplate Reader). The CellTiter 96® AQueous One Solution contains an MTS tetrazolium compound which is bioreduced by cells into a colored formazan product that is soluble in tissue culture medium. The quantity of formazan product as measured by absorbance is directly proportional to the number of living cells in culture. GI50 values were determined from plots of the percentage of compound-treated cell growth to vehicle cell growth vs. compound concentration (GraphPad Prism; non-linear regression 4-parameter curve fit with variable slope).

[2] = Kinetic solubility, turbidity based assay; assay type: physicochemical; conditions: PBS buffer, 37 °C, pH 7.2, aqueous buffer, kinetic from dmso stock, 1×PBS pH 7.2, 1% DMSO, read-out: kinetic solubility, concentration at which precipitates first showed
Description: Kinetic solubility was measured via a turbidity based assay method (Kerns, E. et al. Automation in Pharmaceutical Profiling. Journal of Laboratory Automation (2005) 10, 114-123). 198 μL of 1×PBS (137 mM NaCl, 2.7 mM KCl, 10 mM Na2HPO4, 2 mM KH2PO4, pH 7.2) was added to the wells of a 96-well plate. FQI-34 (either dried or air-exposed (9% water as determined by NMR)) was dissolved in DMSO for 30 mM final concentration immediately before testing. The 30 mM stock was further diluted in DMSO appropriately for the desired final concentration to be tested in the solubility assay. 2 μL of the DMSO solutions were added to the 96-well plate such that DMSO was kept to 1%. The plate was sealed and gently shaken, and allowed to incubate at 37° C. for 2 hours, after which the absorbance at 620 nm was taken. The concentration at which the absorbance was greater than or equal to 0.01 absorbance units was taken as the precipitation point.

[3] = male, Sprague-Dawley, rat, plasma, iv, 4 mg/kg, rat plasma, IV 4 mg/kg, AVERAGE
[4] = male, Sprague-Dawley, rat, plasma, iv, 4 mg/kg, rat plasma, IV 4 mg/kg, individual rats A, B, C
[5] = rat plasma, IV 4 mg/kg, individual rats A, B, C, 4 mg/kg
[6] = rat plasma, PO 100 mg/kg, individual rats A, B, C, 100 mg/kg
[7] = rat, IV 4 mg/kg, individual rats A, B, C, 4 mg/kg

SMILES: CCOc1ccccc1C1CC(=O)Nc2cc3c(cc21)OCO3 (racemic) [FQI1, 8-(2-ethoxyphenyl)-7,8-dihydro-[1,3]dioxolo[4,5-g]quinolin-6(5H)-one]
- growth of a variety of cancers, in vitro cell assay (cancer cell lines): inhibit the growth of a variety of cancers

SMILES: CCOc1cc(N(C)C)ccc1C1CC(=O)Nc2cc3c(cc21)OCO3 (stereo not drawn) [FQI-34, 8-(4-(dimethylamino)-2-ethoxyphenyl)-7,8-dihydro-[1,3]dioxolo[4,5-g]quinolin-6(5H)-one]
- clearance ([1]; male, Sprague-Dawley, rat, plasma, iv, 4 mg/kg, IV 4 mg/kg, AVERAGE): 73 mL/min/kg
- clearance ([1]; male, Sprague-Dawley, rat, plasma, iv, 4 mg/kg, IV 4 mg/kg, individual rats A, B, C): 65 mL/min/kg
- AUC(0-inf) [1, 3]: 935 ng·h/mL
- half-life [1, 3]: 48.6 min
- C0 ([1]; male, Sprague-Dawley, rat, plasma, iv, 4 mg/kg, rat plasma, IV 4 mg/kg, AVERAGE, read-out: C0): 423 ng/mL
- Cmax ([1]; male, Sprague-Dawley, rat, plasma, iv, 4 mg/kg, rat plasma, IV 4 mg/kg, AVERAGE, read-out: Cmax): 552 ng/mL
- Tmax ([1]; male, Sprague-Dawley, rat, plasma, iv, 4 mg/kg, rat plasma, IV 4 mg/kg, AVERAGE, read-out: Tmax): 25.2 min
- AUC(0-inf) [1, 4]: 1020 ng·h/mL
- half-life [1, 4]: 43.8 min
- C0 ([1]; male, Sprague-Dawley, rat, plasma, iv, 4 mg/kg, rat plasma, IV 4 mg/kg, individual rats A, B, C, read-out: C0): 434 ng/mL
- Cmax ([1]; male, Sprague-Dawley, rat, plasma, iv, 4 mg/kg, rat plasma, IV 4 mg/kg, individual rats A, B, C, read-out: Cmax): 545 ng/mL
- Tmax ([1]; male, Sprague-Dawley, rat, plasma, iv, 4 mg/kg, rat plasma, IV 4 mg/kg, individual rats A, B, C, read-out: Tmax): 30 min
- Vd ([1]; male, Sprague-Dawley, rat, plasma, iv, 4 mg/kg, rat, IV 4 mg/kg, AVERAGE): 5.1 L/kg
- Vd ([1]; male, Sprague-Dawley, rat, plasma, iv, 4 mg/kg, rat, IV 4 mg/kg, individual rats A, B, C): 4.6 L/kg
- AUC(0-inf) ([1]; male, Sprague-Dawley, rat, plasma, po, 100 mg/kg, rat plasma, PO 100 mg/kg, AVERAGE): 4960 ng·h/mL
- Cmax ([1]; male, Sprague-Dawley, rat, plasma, po, 100 mg/kg, rat plasma, PO 100 mg/kg, AVERAGE, read-out: Cmax): 526 ng/mL
- Tmax ([1]; male, Sprague-Dawley, rat, plasma, po, 100 mg/kg, rat plasma, PO 100 mg/kg, AVERAGE, read-out: Tmax): 162 min
- AUC(0-inf) ([1]; male, Sprague-Dawley, rat, plasma, po, 100 mg/kg, rat plasma, PO 100 mg/kg, individual rats A, B, C): 4900 ng·h/mL
- Cmax ([1]; male, Sprague-Dawley, rat, plasma, po, 100 mg/kg, rat plasma, PO 100 mg/kg, individual rats A, B, C, read-out: Cmax): 500 ng/mL
- Tmax ([1]; male, Sprague-Dawley, rat, plasma, po, 100 mg/kg, rat plasma, PO 100 mg/kg, individual rats A, B, C, read-out: Tmax): 240 min
- bioavailability ([1]; male, Sprague-Dawley, rat, plasma, po, 100 mg/kg, rat, PO 100 mg/kg, AVERAGE): 21%
- bioavailability ([1]; male, Sprague-Dawley, rat, plasma, po, 100 mg/kg, rat, PO 100 mg/kg, individual rats A, B, C): 21%
- AUC(0-∞) [1, 5]: 759 ng·h/mL and 1028 ng·h/mL
- C0 [1, 5]: 446 ng/mL and 390 ng/mL
- Cmax [1, 5]: 548 ng/mL and 564 ng/mL
- T1/2 [1, 5]: 43.2 min and 59.4 min
- Tmax [1, 5]: 15 min
- AUC(0-∞) [1, 6]: 4026 ng·h/mL and 5936 ng·h/mL
- Cmax [1, 6]: 501 ng/mL and 577 ng/mL
- Tmax [1, 6]: 120 min
- CL [1, 7]: 88 mL/min/kg
- VDss [1, 7]: 5.4 L/kg and 5.3 L/kg
- % Bioavailability F ([1]; rat, PO 100 mg/kg, individual rats A, B, C, 100 mg/kg): 17% and 25%
- GI50 (QGY-7703 cells; 72-hour incubation, MTS, read-out: GI50 in QGY-7703 cells): 260 nM
- GI50 (QGY-7703 cells; Table 5, read-out: QGY-7703 GI50): 260 nM
- GI50 (QGY-7703 cells; Table 8, read-out: QGY-7703 GI50): 260 nM
- solubility kinetic at 2 h ([2]; air-exposed (9% water)): 100 µM (≈ 35.4 µg/mL)
- solubility kinetic at 2 h ([2]; dry): 150 µM (≈ 53.2 µg/mL)
